We go through 5 compounds from PMC3230693 (Nature structural & molecular biology, 2011).

Experiment [1] has as its target WT tEGFR (human EGFR aa 25–1022) (Homo sapiens, UniProt P00533). The experiment in a line: Radiometric kinase inhibition assay, WT tEGFR. It counts as biochemical.
A further experiment deals with L858R tEGFR (Homo sapiens, UniProt P00533, L858R).
The target of another experiment is Δ746–750 tEGFR (Homo sapiens, UniProt P00533, DEL746-750).
The subject of a further experiment is HEK293 GnTi− cells. The experiment in a line: Expression of mutant tEGFRs in transfected cells. It counts as cell-based, human. Conditions: 50 nM in culture medium; western blot. (Immunoblotting shows a protein as a band on a membrane.)
The target of experiment [2] is L858R I706Q tEGFR (human).
In the next experiment the test system is EGFR catalytic domain. Conditions: cited from earlier work.
Experiment [3] has as its target Δ(746–750) I706Q tEGFR (human).

For the compound `Nc1ncnc2c1ncn2[C@@H]1O[C@H](COP(=O)(O)OP(=O)(O)NP(=O)(O)O)[C@@H](O)[C@H]1O` [AMP-PNP], the IC50 in experiment [1] (WT tEGFR–EGF, 10 µM ATP, range stated for WT and mutant tEGFRs) was 80 to 200 µM; at L858R tEGFR (L858R tEGFR–EGF, 10 µM ATP, range stated for WT and mutant tEGFRs), 80 to 200 µM; against Δ746–750 tEGFR (Δ(746–750) tEGFR–EGF, 10 µM ATP, range stated for WT and mutant tEGFRs), 80 to 200 µM. Besides, the Ki in experiment [1] (read-out: Ki (deduced from IC50, ATP concentration and ATP Kmapp), WT tEGFR–EGF) is 21 ± 5 µM. For the same compound, the “Ki fold higher compared with WT” value on L858R tEGFR (L858R vs WT tEGFR, range stated for both mutants) was 5–8 fold; at Δ746–750 tEGFR (Δ746–750 vs WT tEGFR, range stated for both mutants), 5–8 fold.
For `C#Cc1cccc(Nc2ncnc3cc(OCCOC)c(OCCOC)cc23)c1` [erlotinib], the “expression of L858R and Δ746–750 tEGFRs” value with HEK293 GnTi− cells is reported as “enhanced expression”.
Take L858R I706Q tEGFR (receptor): the kinase rate in the presence of EGF, against the single mutant L858R tEGFR in experiment [2] amounted to 30 fold lower.
Turning to “Segment 1 of MIG6: MIG6 segment 1 (30mer, residues 334–364) peptide made by solid-phase peptide synthesis (SPKSLPSYLNGVMPPTQSFAPDPKYVSSKAL)”, the “affinity, fold weaker relative to segment 1+2” value in the experiment on EGFR catalytic domain is recorded as ~ 100 fold. Half-maximal inhibition in experiment [1] (EGF–bound WT tEGFR, phosphorylation of biotinylated substrate peptide) (IC50) required 100 µM. The “inhibition by MIG6 segment 1” value with L858R tEGFR (L858R tEGFR–EGF, up to 100 µM) is “essentially resistant to inhibition”; in the experiment with Δ746–750 tEGFR (Δ(746–750) tEGFR–EGF, up to 100 µM), “essentially resistant to inhibition”.
Δ(746–750) I706Q tEGFR (receptor) came in with a kinase rate of the EGF–bound form, against Δ746–750 tEGFR in experiment [3] of 5 fold lower.

One may read the IC50 as the midpoint of a concentration-inhibition curve.
